Source: PMC7619385 (ACS infectious diseases, 2025)
Read-outs that look alike come from different tables or passages of the source.

Biological target: T1, LmxCLK1 (Leishmania mexicana, UniProt E9AMP2)
T1 sequence (E9AMP2 1-422): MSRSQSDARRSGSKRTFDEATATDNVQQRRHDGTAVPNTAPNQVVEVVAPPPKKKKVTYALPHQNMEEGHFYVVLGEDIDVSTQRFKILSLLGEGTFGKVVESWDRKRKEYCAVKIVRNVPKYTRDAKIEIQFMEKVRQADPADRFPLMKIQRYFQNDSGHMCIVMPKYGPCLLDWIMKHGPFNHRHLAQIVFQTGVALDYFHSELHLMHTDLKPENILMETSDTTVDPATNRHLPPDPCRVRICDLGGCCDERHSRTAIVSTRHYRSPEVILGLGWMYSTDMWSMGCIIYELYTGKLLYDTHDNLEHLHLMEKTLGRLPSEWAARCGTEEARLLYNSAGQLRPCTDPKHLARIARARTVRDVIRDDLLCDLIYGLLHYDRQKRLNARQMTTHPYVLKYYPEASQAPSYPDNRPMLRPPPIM
Experiment: biochemical
Type: binding

[1] = DSF, 10 µM compound, 2 µM LmxCLK1, Run 1
[2] = DSF, 10 µM compound, 2 µM LmxCLK1, Run 2
[3] = DSF, 10 µM compound, 2 µM LmxCLK1, mean of two runs
[4] = DSF, 10 µM compound, 2 µM LmxCLK1, Run 1, read-out: ΔTm Run 1
[5] = DSF, 10 µM compound, 2 µM LmxCLK1, Run 2, read-out: ΔTm Run 2
[6] = DSF, 10 µM compound, 2 µM LmxCLK1, mean of two runs, read-out: ΔTm Average

| Compound | ΔTm Run 1 [1] [°C] | ΔTm Run 2 [2] [°C] | ΔTm Average [3] [°C] | ΔTm at 10 µM [4] [°C] | ΔTm at 10 µM [5] [°C] | ΔTm at 10 µM [6] [°C] | other results |
| --- | --- | --- | --- | --- | --- | --- | --- |
| Cc1cc(CN2CCN(c3c(Br)cnc4nc(-c5ccc(N6CCN(C)CC6)cc5)[nH]c34)CC2)no1 [CCT137690] | 0.3 | 0.4 | 0.3 | – | – | – | – |
| Nc1nc(N)c2nc(-c3cccc(O)c3)c(-c3cccc(O)c3)nc2n1 [TG100-115] | – | – | – | – | – | – | ΔTm Average: 1.5 °C; ΔTm Run 1: 1.7 °C; ΔTm Run 2: 1.3 °C |
| Cc1cc(O)c2c(c1)C(=O)c1cccc(O)c1C2=O [Chrysophanic Acid] | – | – | – | 0 | -0.2 | -0.1 | – |
| CN1CCN(c2nc(C3=C(c4c[nH]c5ccccc45)C(=O)NC3=O)c3ccccc3n2)CC1 [Sotrastaurin] | – | – | – | 1.2 | 0.9 | 1 | – |
| CCCCCCCCc1ccc(CCC(N)(CO)CO)cc1.Cl [Fingolimod (FTY720) HCl] | 0.2 | -0.1 | 0.1 | – | – | – | – |
| CS(=O)(=O)c1cccc(CNc2nc(Nc3ccc4c(c3)CCC(=O)N4)ncc2C(F)(F)F)c1 [PF-573228] | 0.1 | -0.3 | -0.1 | – | – | – | – |
| Oc1cccc(-c2nc(N3CCOCC3)c3oc4ncccc4c3n2)c1 [PI-103] | – | – | – | 0 | 0 | 0 | – |
| CC(C)CC(=O)Nc1[nH]nc2c1CN(C(=O)C1CCN(C)CC1)C2(C)C [PHA-793887] | – | – | – | 0.1 | 0 | 0.1 | – |
| Nc1cc(C(F)(F)F)c(-c2cc(N3CCOCC3)nc(N3CCOCC3)n2)cn1 [BKM120 (NVP-BKM120)] | 0.1 | 0.2 | 0.1 | – | – | – | – |
| COc1cc2nccc(Oc3ccc(NC(=O)Nc4cc(C)on4)c(Cl)c3)c2cc1OC [Tivozanib (AV-951)] | – | – | – | 0.2 | 0 | 0.1 | – |
| CCN(CC)CCNC(=O)c1c(C)[nH]c(/C=C2\C(=O)Nc3ccc(F)cc32)c1C [Sunitinib Malate] | – | – | – | 0.3 | 0.2 | 0.2 | – |
| Cc1c(CN2CCN(C(=O)[C@H](C)O)CC2)sc2c(N3CCOCC3)nc(-c3cnc(N)nc3)nc12 [GDC-0980 (RG7422)] | – | – | – | 0.1 | -0.1 | 0 | – |
| Cc1ccc(C(=O)Nc2ccc(CN3CCN(C)CC3)c(C(F)(F)F)c2)cc1C#Cc1cnc2cccnn12 [Ponatinib (AP24534)] | 0.0 | -0.1 | -0.1 | – | – | – | – |
| COc1cc2nccc(Oc3ccc(NC(=O)C4(C(=O)Nc5ccc(F)cc5)CC4)cc3)c2cc1OC.O=C(O)C[C@H](O)C(=O)O [Cabozantinib malate (XL184)] | 0.1 | -0.3 | -0.1 | – | – | – | – |
| C[C@@H]1CN(CC(=O)Nc2ccc3c(c2)Cc2cccc(-c4cc(=O)cc(N5CCOCC5)o4)c2S3)C[C@H](C)O1 [KU-60019] | – | – | – | -0.1 | -0.2 | -0.1 | – |
| O=C(NCc1cccc(O)c1)Nc1nc(-c2ccncc2)cs1 [RKI-1447] | -0.1 | -0.1 | -0.1 | – | – | – | – |
| CN(C)Cc1cccc(N/C(=C2\C(=O)Nc3cc(C(=O)N(C)C)ccc32)c2ccccc2)c1 [BIX 02189] | – | – | – | – | – | – | ΔTm Average: -0.3; ΔTm Run 1: -0.2; ΔTm Run 2: -0.4 |
| O=C(Nc1cc(C(F)(F)F)cc(C(F)(F)F)c1)c1cc(Cl)ccc1O [IMD 0354] | – | – | – | 0.2 | -0.1 | 0 | – |
| CS(=O)(=O)O.Cn1cc(C2=C(c3cn(CCCSC(=N)N)c4ccccc34)C(=O)NC2=O)c2ccccc21 [Ro 31-8220 Mesylate] | 1.1 | 1.6 | 1.3 | – | – | – | – |
| O=C1NC(=O)/C(=C/c2cccc(C(F)(F)F)c2)S1 [SMI-4a] | – | – | – | – | – | – | ΔTm Average: -0.2; ΔTm Run 1: -0.3; ΔTm Run 2: -0.1 |
| CCN1CCN(Cc2ccc(-c3cc4c(N[C@H](C)c5ccccc5)ncnc4[nH]3)cc2)CC1 [AEE788 (NVP-AEE788)] | 0.2 | 0.3 | 0.3 | – | – | – | – |
| HER2-Inhibitor-1 | 0.2 | -0.1 | 0.1 | – | – | – | – |
| O=c1cc(N2CCOCC2)oc2c(-c3ccccc3)cccc12 [LY294002] | – | – | – | 0.5 | 0.2 | 0.3 | – |

| Compound | ΔTm Run 1 [1] [°C] | ΔTm Run 2 [2] [°C] | ΔTm Average [3] [°C] | ΔTm at 10 µM [4] [°C] | ΔTm at 10 µM [5] [°C] | ΔTm at 10 µM [6] [°C] | other results |
| --- | --- | --- | --- | --- | --- | --- | --- |
| CNC(=O)c1ccc(C)c(-n2c(C)cc(OCc3ccc(F)cc3F)c(Br)c2=O)c1 [PH-797804] | – | – | – | -0.1 | -0.3 | -0.2 | – |
| CCN1CCN(Cc2ccc(Nc3ncc(F)c(-c4cc(F)c5nc(C)n(C(C)C)c5c4)n3)nc2)CC1 [LY2835219] | – | – | – | 2.2 | 2.1 | 2.2 | – |
| CCn1c(N)c(C(=O)NC)c(=O)c2ccc(C#C[C@@](C)(O)COC)nc21 [SAR131675] | 0.0 | -0.1 | 0.0 | – | – | – | – |
| CC(=O)Nc1nc(C)c(-c2ccc(Cl)c(S(=O)(=O)NCCO)c2)s1 [PIK-93] | – | – | – | – | – | – | ΔTm Average: 0 °C; ΔTm Run 1: 0 °C; ΔTm Run 2: -0.1 |
| COc1cc(N2CCC(N3CCN(C)CC3)CC2)ccc1Nc1ncc(Cl)c(Nc2ccccc2P(C)(C)=O)n1 [AP26113] | – | – | – | 1.1 | 0.9 | 1 | – |
| CCCNC(=O)Nc1ccc(Oc2ncnc3cc(OC)c(OC)cc23)cc1Cl [KRN 633] | – | – | – | 0.1 | -0.1 | 0 | – |
| CC(C)(C)c1cc(NC(=O)Nc2ccc(-c3cn4c(n3)sc3cc(OCCN5CCOCC5)ccc34)cc2)no1 [Quizartinib (AC220)] | – | – | – | 0.3 | 0.2 | 0.3 | – |
| Cc1ccc(NC(=O)c2ccc(CN3CCN(C)CC3)cc2)cc1Nc1nc(-c2cccnc2)cs1 [Masitinib (AB1010)] | 0.3 | 0.2 | 0.2 | – | – | – | – |
| CO[C@H]1C[C@@H]2CC[C@@H](C)[C@@](O)(O2)C(=O)C(=O)N2CCCC[C@H]2C(=O)O[C@H]([C@H](C)C[C@@H]2CC[C@H](n3cnnn3)[C@H](OC)C2)CC(=O)[C@H](C)/C=C(\C)[C@@H](O)[C@@H](OC)C(=O)[C@H](C)C[C@H](C)/C=C/C=C/C=C/1C [Zotarolimus(ABT-578)] | 0.2 | 0.0 | 0.1 | – | – | – | – |
| COc1cc(Nc2ncc3c(n2)-c2ccc(Cl)cc2C(c2c(F)cccc2OC)=NC3)ccc1C(=O)O [Alisertib (MLN8237)] | – | – | – | 0.1 | -0.3 | -0.1 | – |
| C1=N/C2=N/c3ccc(OCCN4CCCC4)c(c3)COC/C=C/COCc3cccc(c3)C(=C1)N2 [Pacritinib (SB1518)] | 0.2 | 0.1 | 0.2 | – | – | – | – |
| CN1CCC(c2c(O)cc(O)c3c(=O)cc(-c4ccccc4Cl)oc23)C1CO (stereo not drawn) [P276-00] | – | – | – | – | – | – | ΔTm Average: 0.3 °C; ΔTm Run 1: 0.4 °C; ΔTm Run 2: 0.3 °C |
| CCC[C@H](NC(=O)/C(C#N)=C/c1cccc(Br)n1)c1ccccc1 [Degrasyn (WP1130)] | 0.4 | 0.2 | 0.3 | – | – | – | – |
| CCS(=O)(=O)Nc1ccc2c(c1)/C(=C(/Nc1ccc(CN3CCCCC3)cc1)c1ccccc1)C(=O)N2 [Hesperadin] | – | – | – | 1.7 | 1.3 | 1.5 | – |
| CS(=O)(=O)N1CCc2c(-c3cnc(N)nc3)nc(N3CCOCC3)nc21 [CH5132799] | – | – | – | 0.4 | 0.1 | 0.2 | – |
| COc1ccc(-c2ccc3c(N4CCOC[C@@H]4C)nc(N4CCOC[C@@H]4C)nc3n2)cc1CO [AZD8055] | – | – | – | 0.4 | 0.3 | 0.3 | – |
| CNCc1ccc(-c2cc(-c3nc(-c4ccc(S(=O)(=O)C(C)C)cc4)cnc3N)on2)cc1 [VE-822] | – | – | – | 0.6 | 0.1 | 0.4 | – |
| CN(C)c1ccc(-c2nc3ncc(Cl)c(N4CCN(CC(=O)Nc5nccs5)CC4)c3[nH]2)cc1 [CCT129202] | -0.1 | 0.0 | 0.0 | – | – | – | – |
| CCC(=O)Nc1cccc(Oc2nc(Nc3ccc(N4CCN(C)CC4)cc3OC)ncc2Cl)c1 [WZ4003] | – | – | – | 0.1 | -0.1 | 0 | – |
| FC(F)(F)c1ccc(/C=C/c2nc(COc3ccc(CCCCn4ccnn4)cc3)co2)cc1 [Mubritinib (TAK 165)] | – | – | – | – | – | – | ΔTm Average: 0.2 °C; ΔTm Run 1: 0.4 °C; ΔTm Run 2: 0 °C |
| Oc1ccc(-c2nc(-c3ccc(F)cc3)c(-c3ccncc3)[nH]2)cc1 [SB202190 (FHPI)] | 0.2 | 0.4 | 0.3 | – | – | – | – |
| Cc1cc2c(F)c(Oc3ncnn4cc(OC[C@@H](C)OC(=O)[C@H](C)N)c(C)c34)ccc2[nH]1 [Brivanib Alaninate (BMS-582664)] | 0.3 | 0.1 | 0.2 | – | – | – | – |
| COc1cc2ncc(-c3ccccc3)nc2cc1OC [Tyrphostin AG 1296] | 0.3 | 0.1 | 0.2 | – | – | – | – |
